From the supplement of paper PMC6045584
± gives the standard deviation of the averaged measurements.

Tests used:
SAPACITABINE = compound: CCCCCCCCCCCCCCCC(=O)Nc1ccn([C@@H]2O[C@H](CO)[C@@H](O)[C@@H]2C#N)c(=O)n1 [SAPACITABINE]; test: surviving fraction relative to DMSO-only wells; higher = less growth inhibition; conditions: exposure time: 5 days
Outline: (§1)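 Viability was scored with CellTiter-Glo luminescence and normalised to the median of DMSO-only wells as surviving fraction. Beforehand, log-phase tumour cell lines were seeded at 250–500 cells per well in 384-well plates, allowed 24 hours, and exposed continuously for five days to inhibitors at 0.5, 1, 5, 10, 50, 100, 500 and 1000 nM. Only lines whose three screens gave replicate Pearson r >0.7 and median Z' >0.3 were kept.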

AFATINIB = compound: CN(C)C/C=C/C(=O)Nc1cc2c(Nc3ccc(F)c(Cl)c3)ncnc2cc1O[C@H]1CCOC1 [AFATINIB]; test: as above; conditions: exposure time: 5 days
Outline: as §1

Test System	surviving fraction (SAPACITABINE; 0.5 nM)	surviving fraction (SAPACITABINE; 1 nM)	surviving fraction (SAPACITABINE; 5 nM)	surviving fraction (SAPACITABINE; 10 nM)	surviving fraction (SAPACITABINE; 50 nM)	surviving fraction (SAPACITABINE; 100 nM)	surviving fraction (SAPACITABINE; 500 nM)	surviving fraction (SAPACITABINE; 1000 nM)	surviving fraction (AFATINIB; 0.5 nM)	surviving fraction (AFATINIB; 1 nM)	surviving fraction (AFATINIB; 5 nM)	surviving fraction (AFATINIB; 10 nM)	surviving fraction (AFATINIB; 50 nM)	surviving fraction (AFATINIB; 100 nM)	surviving fraction (AFATINIB; 500 nM)	surviving fraction (AFATINIB; 1000 nM)
HU09 BONE	0.854 ± 0.062	0.812 ± 0.027	0.97 ± 0.061	0.882 ± 0.018	0.857 ± 0.021	0.537 ± 0.042	0.0813 ± 0.0049	0.0557 ± 0.0035	1.08 ± 0.085	1.02 ± 0.1	1.16 ± 0.074	1.14 ± 0.087	1.12 ± 0.067	1.06 ± 0.15	0.6 ± 0.049	0.231 ± 0.012
BT549 BREAST	0.831 ± 0.065	0.869 ± 0.068	0.809 ± 0.027	0.695 ± 0.026	0.508 ± 0.022	0.367 ± 0.029	0.16 ± 0.044	0.125 ± 0.034	1.08 ± 0.1	1.12 ± 0.072	1.11 ± 0.11	1.07 ± 0.2	0.919 ± 0.15	1.09 ± 0.066	0.696 ± 0.15	0.278 ± 0.082
HOS BONE	0.899 ± 0.01	0.912 ± 0.0076	0.927 ± 0.018	0.911 ± 0.024	0.975 ± 0.041	0.831 ± 0.026	0.209 ± 0.035	0.224 ± 0.007	1.01 ± 0.027	1.03 ± 0.012	1.017 ± 0.0066	1.01 ± 0.016	1.02 ± 0.014	1.02 ± 0.023	0.979 ± 0.048	0.858 ± 0.025
ASKA SYNOVIAL	0.917 ± 0.028	0.783 ± 0.0061	0.865 ± 0.024	0.327 ± 0.053	0.911 ± 0.043	0.688 ± 0.044	0.489 ± 0.01	0.203 ± 0.014	1.13 ± 0.029	1.09 ± 0.035	1.15 ± 0.083	1.1 ± 0.11	1.15 ± 0.029	1.14 ± 0.028	0.78 ± 0.023	0.404 ± 0.023
SCC90 HEADNECK	0.88 ± 0.089	0.794 ± 0.074	0.862 ± 0.011	0.848 ± 0.053	1.06 ± 0.13	0.953 ± 0.087	0.853 ± 0.015	0.999 ± 0.064	1 ± 0.04	0.907 ± 0.086	0.621 ± 0.036	0.495 ± 0.028	0.42 ± 0.08	0.351 ± 0.0068	0.288 ± 0.011	0.235 ± 0.011
SKBR3 BREAST	0.873 ± 0.076	0.696 ± 0.054	0.756 ± 0.012	0.828 ± 0.046	0.791 ± 0.15	0.572 ± 0.096	0.386 ± 0.084	0.391 ± 0.051	0.866 ± 0.033	0.699 ± 0.049	0.322 ± 0.015	0.265 ± 0.013	0.167 ± 0.011	0.131 ± 0.007	0.119 ± 0.0076	0.122 ± 0.006
C33A CERVIX	1.09 ± 0.078	0.987 ± 0.071	1.12 ± 0.026	0.981 ± 0.059	0.711 ± 0.08	0.457 ± 0.029	0.214 ± 0.024	0.142 ± 0.021	0.907 ± 0.059	1.02 ± 0.12	0.909 ± 0.046	0.939 ± 0.085	0.507 ± 0.0065	0.417 ± 0.0072	0.337 ± 0.038	0.23 ± 0.0027
SYO1 SYNOVIAL	0.83 ± 0.07	0.689 ± 0.019	0.737 ± 0.016	0.343 ± 0.029	0.48 ± 0.022	0.269 ± 0.0028	0.0989 ± 0.0067	0.0679 ± 0.0022	0.996 ± 0.057	1.03 ± 0.027	0.948 ± 0.059	0.995 ± 0.026	0.95 ± 0.017	0.952 ± 0.042	0.606 ± 0.035	0.324 ± 0.02
YAMATO SYNOVIAL	0.776 ± 0.044	0.446 ± 0.029	0.684 ± 0.053	0.11 ± 0.0083	1.04 ± 0.062	0.511 ± 0.021	0.402 ± 0.01	0.0903 ± 0.0049	1.22 ± 0.061	1.34 ± 0.096	1.32 ± 0.15	1.18 ± 0.0093	1.23 ± 0.037	1.27 ± 0.07	1.16 ± 0.035	0.739 ± 0.02
HT1080 SOFT TISSUE	1 ± 0.028	1.01 ± 0.029	1.02 ± 0.053	0.935 ± 0.053	0.591 ± 0.025	0.434 ± 0.012	0.314 ± 0.012	0.271 ± 0.0047	0.994 ± 0.033	1.02 ± 0.015	1.037 ± 0.0045	0.991 ± 0.048	0.985 ± 0.036	1 ± 0.047	0.943 ± 0.031	0.729 ± 0.055
SCC003 HEADNECK	0.85 ± 0.04	0.797 ± 0.068	0.885 ± 0.028	0.784 ± 0.047	1.05 ± 0.041	0.879 ± 0.026	0.481 ± 0.003	0.339 ± 0.014	1.11 ± 0.093	1.04 ± 0.045	0.941 ± 0.1	0.901 ± 0.095	0.636 ± 0.056	0.557 ± 0.0066	0.518 ± 0.068	0.425 ± 0.058
PCI30 HEADNECK	0.899 ± 0.053	0.916 ± 0.046	0.946 ± 0.039	0.984 ± 0.051	0.965 ± 0.027	0.801 ± 0.023	0.555 ± 0.028	1.05 ± 0.13	1.01 ± 0.1	0.94 ± 0.073	0.616 ± 0.019	0.459 ± 0.0087	0.4 ± 0.022	0.358 ± 0.035	0.241 ± 0.063	0.064 ± 0.011
HSSYII SYNOVIAL	0.797 ± 0.015	0.636 ± 0.061	0.726 ± 0.032	0.132 ± 0.022	0.537 ± 0.033	0.315 ± 0.005	0.123 ± 0.0085	0.0603 ± 0.0046	0.981 ± 0.053	0.965 ± 0.1	0.941 ± 0.035	0.984 ± 0.044	0.94 ± 0.024	0.922 ± 0.064	0.635 ± 0.019	0.379 ± 0.017
HCC70 BREAST	0.968 ± 0.09	0.935 ± 0.058	1.03 ± 0.036	0.97 ± 0.023	0.746 ± 0.065	0.635 ± 0.0092	0.4057 ± 0.0035	0.332 ± 0.028	1.02 ± 0.064	0.981 ± 0.067	1 ± 0.015	0.965 ± 0.092	0.967 ± 0.022	1.02 ± 0.093	0.962 ± 0.016	0.827 ± 0.1
VCAP PROSTATE	0.892 ± 0.048	0.935 ± 0.07	0.959 ± 0.085	0.91 ± 0.055	1.06 ± 0.038	1.03 ± 0.1	0.95 ± 0.015	0.791 ± 0.1	1.07 ± 0.14	1 ± 0.16	1.06 ± 0.093	1.06 ± 0.051	1.06 ± 0.064	1.03 ± 0.14	0.723 ± 0.14	0.405 ± 0.043
ZR751 BREAST	1.02 ± 0.049	1 ± 0.21	1.01 ± 0.14	0.888 ± 0.13	1.01 ± 0.073	0.788 ± 0.011	0.627 ± 0.06	0.472 ± 0.039	1.14 ± 0.15	0.982 ± 0.17	0.979 ± 0.058	0.926 ± 0.13	0.746 ± 0.097	0.87 ± 0.1	0.671 ± 0.083	0.536 ± 0.068
SIHA CERVIX	0.907 ± 0.068	0.863 ± 0.03	0.895 ± 0.044	0.91 ± 0.021	1.02 ± 0.026	0.972 ± 0.11	0.739 ± 0.046	0.641 ± 0.035	1.05 ± 0.025	1.06 ± 0.069	1.02 ± 0.022	1.01 ± 0.064	1.03 ± 0.011	1.07 ± 0.085	0.845 ± 0.019	0.684 ± 0.052
